How the values were obtained:
Assay type in all cases: in vivo, human
[1] = test system: TNF-α; assay: Randomized clinical trial in CPB patients: circulating TNF-α by ELISA; conditions: perioperative taurolidine
Protocol: (§1) A randomized prospective clinical trial was performed. Thirty-four consecutive patients with an ejection fraction >30%, undergoing elective coronary artery bypass grafting were randomized into four groups. Groups A and B received taurolidine (250 mL 2% taurolidine) intravenously at induction through a central line. These patients also received two further doses of taurolidine at 12 hour intervals (2×250 mL 2% taurolidine/day) for the first 24 hours following surgery, but in group A crystalloid cardioplegia was used for myocardial protection and in group B blood cardioplegia was used. Groups C and D received saline vehicle controls while group C had crystalloid cardioplegia and group D received blood cardioplegia. Blood samples were taken pre-operatively, at the time of aortic unclamping, 2 hours, 6 hours and 24 hours post aortic unclamping. Neutrophil and monocyte respiratory burst, phagocytosis ability, CD11b and CD14 expression were assessed using flow cytometry. Plasma interleukins 6, 8 and 10 (IL-6, IL-8 and IL-10) and tumor necrosis factor α (TNF-α) were determined by Enzyme Linked Immuno Sorbent Assay. All the patients received the standard antibiotic prophylaxis for cardiac bypass surgery.
(§2) Patient selection was performed as follows. […]
(§3) Parameters 2-4 were assessed post aortic unclamping, 2 hours and 24 hours post-operatively.

[2] = test system: IL-6; assay: Randomized clinical trial in CPB patients: IL-6 level by ELISA
Protocol: as §1
(§4) Patient selection was performed as follows. Patients undergoing elective coronary artery bypass grafting with an ejection fraction greater than or equal to 30%, no history of Diabetes mellitis and a normal chest x-ray were selected. Patients on ACE-inhibitors were not included in the study. The decision was made jointly by the consultant anesthetist and surgeon involved before inclusion in the study, and each patient was then randomized to drug or control. All the patients were nursed in the cardiac intensive care unit post operatively. Informed consent was sought from each patient before inclusion into the study.
as §3
(§5) Thirty-four patients were studied as described above.

[3] = test system: neutrophil and monocyte activity (respiratory burst, phagocytosis, CD11b, CD14); assay: Randomized clinical trial in CPB patients: neutrophil and monocyte activity by flow cytometry; conditions: perioperative taurolidine
Protocol: as §1, §2, §3

[4] = test system: IL-10; assay: Randomized clinical trial in CPB patients: IL-10 level by ELISA
Protocol: as §1, §4, §3, §5

[5] = test system: arrhythmia in CPB patients; assay: Arrhythmia in CPB patients during crystalloid cardioplegia; conditions: of ten patients; crystalloid cardioplegia with taurolidine 2% solution (placebo: 8 of ten)
Description: Ten patients underwent CPB using crystalloid cardioplegia with taurolidine 2% solution for myocardial protection. Another ten patients underwent CPB using crystalloid cardioplegia and a placebo for myocardial protection. Three of the patients treated with taurolidine experienced arrhythmia whereas 8 of the patients treated with placebo experienced arrhythmia.

[6] = test system: IL-8; assay: Randomized clinical trial in CPB patients: circulating IL-8 by ELISA; conditions: perioperative taurolidine
Protocol: as §1, §2, §3

[7] = 24 hours post aortic unclamping, crystalloid cardioplegia (Group A, n = 8), 250 mL 2% taurolidine i.v., mean ± s.d., *p < 0.05 vs. placebo
[8] = Group A vs. Group B, p<0.05 at 24 hours post aortic unclamping
[9] = crystalloid cardioplegia, Group A vs. Group C, 24 hour timepoint

O=S1(=O)CCN(CN2CCS(=O)(=O)NC2)CN1 [Taurolidine, bis(1,1-dioxoperhydro-1,2,4-thiadiazin-4-yl)methane]
Effect on circulating TNF-α [1]: did not appear to modify
Serum IL-6 level [2, 7]: 8.0 ± 1.4* pg/mL
Interleukin-6, crystalloid vs. blood cardioplegia in taurolidine patients [2, 8]: significantly down-regulated
Effect on interleukin-6 in combination with blood cardioplegia ([2]; blood cardioplegia, Group B vs. Group D): No beneficial effect
Interleukin-6 vs. placebo (in words) [2, 9]: significantly down-regulated
Effect on neutrophil or monocyte activity [3]: did not appear to modify
Serum IL-10 level [4, 7]: 28.2 ± 9.6* pg/mL
Interleukin-10, crystalloid vs. blood cardioplegia in taurolidine patients [4, 8]: significantly up-regulated
Interleukin-10 vs. placebo (in words) [4, 9]: significantly up-regulated
Number of patients who experienced arrhythmia [5]: Three
Effect on circulating IL-8 [6]: did not appear to modify
